Among the test systems are RXF 393; MDA-N; SF-268; KM12; IGROV-1; TK-10; UO-31; ACHN; SK-MEL-5; U-251; OVCAR-4; DU-145; RPMI-8226; NCI-H522; NCI/ADR-RES; K562; UACC-62; SK-MEL-28; SNB-19; SK-OV-3.
Common to all, as to test: inhibition of tumour cell growth, NCI panel, 48 h

These results are taken from ChEMBL document CHEMBL1201862, “PubChem BioAssay data set” (2004).

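How tested: cells in 96-well plates exposed to compound for 48 hours at five concentrations. Here, GI50 denotes the concentration required for 50% inhibition of growth.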 The source made the active and inactive calls. Cut-off read from the data, not from the text of the source: active = GI50 up to about 1.1 µM and inactive = higher.

For the compound `CC(=O)Nc1ccc2c(C)c3c(nc2n1)[nH]c1ccccc13`, the GI50 in the test on RXF 393 was 33.6 µM (inactive); with MDA-N, 18.1 µM (inactive); in the test with SF-268, 33 µM (inactive); in the test with KM12, 21.9 µM (inactive); with IGROV-1 it was 22.2 µM (inactive); in the test with TK-10, 55.5 µM (inactive). Besides, the GI50 with UO-31 was 24.5 µM (inactive); with ACHN, 17.8 µM (inactive); in the test with SK-MEL-5, 14.9 µM (inactive); in the test on U-251, 32.4 µM (inactive); in the test on OVCAR-4, 38.7 µM (inactive); in the test on DU-145 it was 33.6 µM (inactive). For the same compound, the GI50 in the test with RPMI-8226 was 27.2 µM (inactive); with NCI-H522, 20 µM (inactive); with NCI/ADR-RES it was 22.1 µM (inactive); with K562 it was 35.5 µM (inactive); with UACC-62, 22.6 µM (inactive).
With `Cc1cc2c(cc1Cl)Sc1nnc(Nc3ccccc3)n1S2(=O)=O`, the GI50 in the test with RXF 393 was 5.26 µM (inactive); in the test with MDA-N it was 6.05 µM (inactive); in the test on SF-268 it was 2.32 µM (inactive); in the test on KM12, 12 µM (inactive); with IGROV-1, 10 µM (inactive); in the test with SK-MEL-28, 15.8 µM (inactive). The GI50 was 17.8 µM (inactive) in the test on TK-10; 13.4 µM (inactive) in the test with UO-31; 12.2 µM (inactive) in the test with ACHN; 11.7 µM (inactive) with SK-MEL-5; 3.75 µM (inactive) with U-251; 6.89 µM (inactive) in the test on OVCAR-4. Further, the GI50 with DU-145 is 18.2 µM (inactive); in the test with RPMI-8226 it was 2.61 µM (inactive); in the test on NCI-H522, 2.93 µM (inactive); with NCI/ADR-RES it was 6.22 µM (inactive); with K562, 8.69 µM (inactive).
Take `CC(C)C[C@H](NC(=O)CCc1ccccc1)B(O)O`: the GI50 in the test with RXF 393 was 5.66 µM (inactive); in the test on MDA-N, 2.49 µM (inactive); in the test on SF-268, 10.1 µM (inactive); in the test on KM12, 16.7 µM (inactive); with SNB-19 it was 15.4 µM (inactive); with IGROV-1, 23.2 µM (inactive). For the same compound, the GI50 in the test with SK-MEL-28 was 11 µM (inactive); in the test on TK-10, 8.97 µM (inactive); in the test with UO-31 it was 15.8 µM (inactive); with ACHN it was 5.79 µM (inactive); in the test with SK-MEL-5, 8.45 µM (inactive); in the test with U-251, 31.4 µM (inactive). Also, the GI50 in the test on OVCAR-4 was 36.5 µM (inactive); with DU-145, 60.8 µM (inactive); with RPMI-8226, 2.24 µM (inactive); in the test with NCI-H522, 11.7 µM (inactive); in the test with NCI/ADR-RES, 22.7 µM (inactive); in the test with K562 it was 17.6 µM (inactive). The GI50 with UACC-62 is 14.8 µM (inactive).
Regarding `Cc1nc(/C(=N\n2cnnc2)Nc2ccc(Br)cc2)no1`, the GI50 with RXF 393, in the test with MDA-N, with KM12, in the test on SNB-19, in the test on IGROV-1 and with SK-MEL-28 was > 100 µM (inactive) in each case. For the same compound, the GI50 with UO-31, in the test on ACHN, in the test with SK-MEL-5, with U-251, with OVCAR-4 and in the test on DU-145 was > 100 µM (inactive) throughout. Moreover, the GI50 in the test on RPMI-8226 was > 100 µM (inactive); in the test on NCI-H522 it was > 100 µM (inactive); with NCI/ADR-RES, > 100 µM (inactive); in the test on SK-OV-3, > 100 µM (inactive); with K562, 57.1 µM (inactive); in the test on UACC-62, > 100 µM (inactive).
In the case of `c1cc2c(cc1C1=NCCN1)c1cc(C3=NCCN3)ccc1n2CC1CCCCC1`, the GI50 in the test on RXF 393 was 39.5 µM (inactive); in the test on MDA-N, 23.6 µM (inactive); with SF-268, 4.31 µM (inactive); with KM12, 8.73 µM (inactive); with SNB-19, 5.9 µM (inactive); with IGROV-1, 18.2 µM (inactive). In addition, the GI50 with SK-MEL-28 was 10.4 µM (inactive); in the test with TK-10, 51.3 µM (inactive); with UO-31 it was 81.3 µM (inactive); in the test on ACHN, > 100 µM (inactive); in the test with SK-MEL-5, 11.9 µM (inactive); in the test with U-251, 6.58 µM (inactive). The GI50 in the test with OVCAR-4 is 22.5 µM (inactive); with DU-145, 18.1 µM (inactive); in the test on RPMI-8226 it was 22.7 µM (inactive); in the test with NCI-H522 it was 4.94 µM (inactive); with NCI/ADR-RES, > 100 µM (inactive); in the test with SK-OV-3, 18.5 µM (inactive). Besides, the GI50 in the test on K562 is 14.8 µM (inactive).
For `Cc1ccc2c(=O)c(C(=O)N(CCO)CCO)c[nH]c2n1`, the GI50 in the test on RXF 393, in the test with MDA-N, with SF-268, in the test on KM12, in the test on SNB-19 and in the test with IGROV-1 was > 100 µM (inactive) each time. The GI50 with SK-MEL-28, in the test on TK-10, in the test with UO-31, with ACHN, with SK-MEL-5 and in the test with U-251 was > 100 µM (inactive) throughout. For the same compound, the GI50 in the test on OVCAR-4, with DU-145, in the test with RPMI-8226, in the test on NCI-H522, in the test on NCI/ADR-RES and in the test on K562 was > 100 µM (inactive) throughout. In addition, the GI50 in the test with UACC-62 was > 100 µM (inactive).
`NS(=O)(=O)c1nnc(NC(=O)c2ccccc2)s1`: the GI50 in the test on RXF 393, in the test with MDA-N, in the test with SF-268, with KM12, in the test with SNB-19 and in the test on SK-MEL-28 was > 100 µM (inactive) in each case. The GI50 with TK-10 was > 100 µM (inactive); in the test with UO-31 it was > 100 µM (inactive); with ACHN, > 100 µM (inactive); with SK-MEL-5 it was > 100 µM (inactive); in the test with U-251, > 100 µM (inactive); with OVCAR-4, 0.536 µM (active). Besides, the GI50 with DU-145, in the test on RPMI-8226, in the test on NCI-H522, in the test with NCI/ADR-RES, in the test with SK-OV-3 and in the test on K562 was > 100 µM (inactive) each time. Besides, the GI50 with UACC-62 is > 100 µM (inactive).
For `CCC(C)N1CN(c2ccccc2)C2(CCN(CC3COc4ccccc4O3)CC2)C1=O` (stereo not drawn), the GI50 is 20.9 µM (inactive) in the test on RXF 393; 25.6 µM (inactive) with MDA-N; 48 µM (inactive) in the test with SF-268; 18.1 µM (inactive) with KM12; 23.7 µM (inactive) in the test with SNB-19; 42.2 µM (inactive) with IGROV-1. For the same compound, the GI50 with SK-MEL-28 is 39.7 µM (inactive); in the test on TK-10 it was 27.5 µM (inactive); in the test with UO-31 it was 10.8 µM (inactive); with ACHN, 33.5 µM (inactive); in the test with SK-MEL-5 it was 14.7 µM (inactive); in the test with U-251, 17.7 µM (inactive). Also, the GI50 in the test with DU-145 is 21.6 µM (inactive); with RPMI-8226 it was 13.3 µM (inactive); with NCI-H522 it was 22.8 µM (inactive); with NCI/ADR-RES, 17.8 µM (inactive); in the test on SK-OV-3 it was 33.6 µM (inactive); with K562 it was 16.5 µM (inactive). Besides, the GI50 with UACC-62 is 19 µM (inactive).
`Nc1ncnc2c1ncn2C1OC(COP(=O)(O)CP(=O)(O)O)C(O)C1O` (stereo not drawn): the GI50 in the test on RXF 393, in the test with MDA-N, in the test on SF-268, in the test with KM12, in the test on SNB-19 and in the test with IGROV-1 was > 100 µM (inactive) each time. Further, the GI50 in the test with SK-MEL-28, with TK-10, in the test on UO-31, in the test on ACHN, in the test on SK-MEL-5 and with U-251 was > 100 µM (inactive) throughout. Further, the GI50 in the test with DU-145, in the test with RPMI-8226, in the test on NCI-H522, in the test on NCI/ADR-RES, with SK-OV-3 and in the test with K562 was > 100 µM (inactive) throughout. Also, in the test with UACC-62, the GI50 was > 100 µM (inactive).
With `COc1cc(C(=O)N(Cc2cccnc2)C(=S)N(Cc2cccnc2)C(=O)c2cc(OC)c(OC)c(OC)c2)cc(OC)c1OC`, the GI50 was 38.4 µM (inactive) with RXF 393; 36 µM (inactive) in the test with MDA-N; 40.4 µM (inactive) in the test with SF-268; 22.4 µM (inactive) in the test on KM12; > 100 µM (inactive) in the test on SNB-19; > 100 µM (inactive) in the test with SK-MEL-28. Further, the GI50 was 89.1 µM (inactive) in the test on TK-10; 49.8 µM (inactive) in the test on UO-31; > 100 µM (inactive) with ACHN; 76.9 µM (inactive) in the test on SK-MEL-5; 17.8 µM (inactive) with OVCAR-4; 52.2 µM (inactive) in the test on DU-145. In addition, the GI50 is 56.6 µM (inactive) with RPMI-8226; 23.9 µM (inactive) in the test on NCI-H522; > 100 µM (inactive) with NCI/ADR-RES; > 100 µM (inactive) in the test on SK-OV-3; 52 µM (inactive) in the test with K562; 31.6 µM (inactive) with UACC-62.
On to `COc1cc(/C=C2\C(=O)N(c3ccccc3)C(c3ccccc3)S2(=O)=O)cc(OC)c1OC` (stereo not drawn), for which the GI50 is 17.1 µM (inactive) in the test with RXF 393; 16.4 µM (inactive) in the test on MDA-N; > 100 µM (inactive) in the test with SF-268; 38.4 µM (inactive) in the test with KM12; 31 µM (inactive) with SNB-19; 51.6 µM (inactive) in the test on SK-MEL-28. Further, the GI50 in the test on TK-10 is 65 µM (inactive); with UO-31 it was 22.9 µM (inactive); in the test on ACHN, > 100 µM (inactive); in the test on SK-MEL-5, 17.6 µM (inactive); in the test on U-251, 28.6 µM (inactive); in the test with OVCAR-4 it was 27.5 µM (inactive). The GI50 in the test with DU-145 was 37.9 µM (inactive); in the test with RPMI-8226 it was 17.2 µM (inactive); in the test on NCI-H522, 29.7 µM (inactive); in the test on NCI/ADR-RES it was 28.4 µM (inactive); with SK-OV-3 it was 62.7 µM (inactive); with K562 it was 27 µM (inactive). Further, the GI50 with UACC-62 was 30.1 µM (inactive).
